Measured values taken from patent EP0828725B1, “PROCESS FOR THE RECOVERY OF ASCORBIC ACID” (YISSUM RESEARCH DEVELOPMENT COMPANY OF THE HEBREW …, priority 1995, dated 1996).

Columns and labels:
[1] = Temperature sensitivity of carboxylic acid extraction by 0.5 mol/kg Alamine 304 + 10% octanol in kerosene; format: physicochemical; conditions: distribution coefficient at 30°C divided by that at 75°C; for TS in Equilibrium with Aqueous Solutions of (mol/kg) 0.05: aqueous phase 0.05 mol/kg; for TS in Equilibrium with Aqueous Solutions of (mol/kg) 0.2: aqueous phase 0.2 mol/kg; for TS in Equilibrium with Aqueous Solutions of (mol/kg) 0.3: aqueous phase 0.3 mol/kg; for TS in Equilibrium with Aqueous Solutions of (mol/kg) 0.475: aqueous phase 0.475 mol/kg
Excerpt: Referring now to said patents and the teachings thereof, one finds that the process taught therein utilizes the effect of temperature on phosphoric and carboxylic acid extraction by amine-based extractants. The term "amine" as used herein means water-immiscible amine, with a total of at least 20 carbon atoms on its chains. Said patents teach that such amine-based extractants (ABE) lose much of their extraction efficiency upon temperature elevation. This loss of efficiency is referred to as "temperature sensitivity of extraction" (TS). The magnitude of this TS can be represented by the ratio of the distribution coefficient at the lower temperature (DT1) and the distribution coefficient at the higher temperature (DT2). High TS provides for the purification and the concentration of carboxylic acids through altering the temperature between extraction and back-extraction. The acid is extracted from the fermentation liquor by an ABE at low temperature, and is then back-extracted with water at an elevated temperature. The aqueous solution obtained from that back-extraction is, in many cases, more concentrated than in the fermentation liquor. This process is referred to herein as the "temperature swing process" (TSP). The attraction of such processes is in the fact that the sole energy consumption is that of sensible heat, which saves a lot of the latent heat of water evaporation in the final concentration.

[2] = Distribution curves, extractant 1.2 mol/kg tricaprylyl amine and 2.4 mol/kg octanol in kerosene (Fig. 2); format: physicochemical; conditions: temperature gradient of 25-80°C
[3] = Extraction at 25°C and stripping at about 96°C with 50% w/w tridodecylamine and 50% w/w 1-n-octanol, recycled extractant; format: physicochemical; conditions: practically complete extraction with recycled extractant; feed 0.22 mol/kg
Procedure: […]. […] […]. The extractant was composed of 50% w/w tridodecylamine and 50% w/w of 1-n-octanol. The extraction was conducted at 25°C and the stripping at about 96°C.
Extraction as in Example 12 (100 g aqueous, 40 g extractant, 3 countercurrent stages) results in practically complete extraction of the acid to form an extract (loaded extractant) comprising 5% w/w lactic acid. […]. About two-thirds of the extracted lactic acid stays in the organic phase. Re-use of this organic phase in extraction from 2% lactic acid solutions results in low yields; not more than 20% of the acid is extracted. Increasing the number of stages in extraction has only a small effect. Near complete stripping and thus high yield in re-use of the organic phase requires about 150 g water per 40 g of extract, and 6-7 countercurrent stages. […]
Stripping the extract at 96°C with 35 g water results in an aqueous solution comprising 0.6 mol/kg ascorbic acid and an organic phase practically free of ascorbic acid. Re-use of this organic phase in extraction provides an extraction yield of at least 95% at the above conditions.

[4] = cited from earlier work
[5] = Distribution curves, extractant 1.2 mol/kg tricaprylyl amine (50%) and 3.8 mol/kg octanol (50%) (Fig. 3); format: physicochemical; conditions: extraction at 25°C and back-extraction at 96°C
Procedure: Fig. 3 illustrates distribution curves for extraction by an extractant composed of 1.2 mol/kg tricaprylyl amine (50%) and 3.8 mol/kg octanol (50%). The loading of the extractant in contact with 0.2 mol/kg ascorbic acid containing aqueous solution is about 0.5 mol/kg. […] The effect is even more impressive at the low concentrations end. […] A concentration factor of about 4 can be reached on extraction at 25°C and back-extraction at 96°C.

| TS in Equilibrium with Aqueous Solutions of (mol/kg) 0.05 [1] | TS in Equilibrium with Aqueous Solutions of (mol/kg) 0.2 [1] | TS in Equilibrium with Aqueous Solutions of (mol/kg) 0.3 [1] | TS in Equilibrium with Aqueous Solutions of (mol/kg) 0.475 [1] | uphill concentration factor [2] | product diluted compared with the feed [3] [times] | temperature sensitivity [5] | Compound | pKa [4] |
| --- | --- | --- | --- | --- | --- | --- | --- | --- |
| 4.3 | 4.0 | 4.0 | 4.1 | about 2 | – | – | O=C(O)CCC(=O)O [Succinic, succinic acid] | – |
| 3.4 | 3.2 | 2.7 | 2.4 | – | – | – | O=C(O)C(O)C(O)C(=O)O (stereo not drawn) [Tartaric] | – |
| 4.0 | 4.3 | 4.0 | 4.0 | – | – | – | O=C(O)CC(O)C(=O)O (stereo not drawn) [Malic] | 3.22 |
| 3.6 | 1.5 | 1.3 | 1.1 | – | – | – | O=C(O)CC(=O)O [Malonic] | – |

Second part, the compound before the results:

| Compound | TS in Equilibrium with Aqueous Solutions of (mol/kg) 0.05 [1] | TS in Equilibrium with Aqueous Solutions of (mol/kg) 0.2 [1] | TS in Equilibrium with Aqueous Solutions of (mol/kg) 0.3 [1] | TS in Equilibrium with Aqueous Solutions of (mol/kg) 0.475 [1] | uphill concentration factor [2] | product diluted compared with the feed [3] [times] | temperature sensitivity [5] | pKa [4] |
| --- | --- | --- | --- | --- | --- | --- | --- | --- |
| CC(O)C(=O)O (stereo not drawn) [Lactic, lactic acid] | 2.5 | 2.4 | 2.4 | 2.2 | – | 4 | – | – |
| CC(C)C(=O)O [Isobutyric] | 1.9 | 1.5 | 1.4 | 1.1 | – | – | – | – |
| O=C(O)/C=C\C(=O)O [Maleic] | 1.1 | 1.0 | 1.0 | 1.0 | – | – | – | – |
| O=C(O)CC(O)(CC(=O)O)C(=O)O [Citric, citric acid] | 6.0 | 3.1 | 2.6 | 2.2 | – | – | Practically no temperature sensitivity | – |
| O=C(O)CCCC(=O)O [Glutaric] | 3.9 | 4.5 | 4.5 | 4.4 | – | – | – | 4.4 |
| O=C(O)[C@H](O)[C@@H](O)[C@H](O)[C@H](O)CO [Gluconic] | 2.1 | 2.3 | 2.4 | 2.6 | – | – | – | – |
